Experimental data reported in article PMC11868595, “Safety, pharmacokinetics and efficacy of HA121-28 in patients with advanced solid tumors and RET fusion-positive non-small-cell lung cancer: a multicenter, open-label, single-arm phase 1/2 trial” (Signal Transduction and Targeted Therapy, 2025).

Test system: patients with advanced solid tumors
Assay: Phase 1 trial: adverse events (CTCAE), DLT and MTD
Type: in vivo, human
Description: The phase 1 trial was a two-part, multicenter, open-label, nonrandomized study to evaluate the safety and preliminary efficacy of HA121-28.
Safety, tolerability, and PK of HA121-28 was assessed in dose-escalation part. The single-patient accelerated titration was carried out at 25 mg and 50 mg; then, the dose escalation proceeded according to a “3 + 3” design in dose range of 100 to 800 mg. Escalation to a higher dose level was considered by the satisfactory review of safety results from the previous lower dose during the first cycle.
The dose-expansion part aims to further access the safety and efficacy of HA121-28 at the selected doses based on data from the dose-escalation part. The RP2D was determined by investigators in view of a thorough review of safety, PK, and efficacy results.
In phase 1 trial, during the dose-escalation part, patients first administered HA121-28 in a single ascending dose under the fasted state, then followed up for seven days. Then, patients received ascending doses of HA121-28 (q.d.) on a 21-day on and 7-day off treatment scheme for a 28-day cycle. For patients deemed beneficial from the treatment by investigators, treatment could remain until disease progression, or they discontinued from the study. In the dose-expansion part of phase 1, as well as phase 2, patients received HA121-28 (q.d.) at the selected doses on a 21-day on and 7-day off treatment scheme until disease progression, or they discontinued from the study.
Treatment-emergent adverse events (TEAEs) were documented during the entire study period. The predefined adverse event of special interest (AESI) was ≥ grade 3 prolonged QT interval. Tumor imaging was performed using contrast-enhanced computed tomography or magnetic resonance imaging at screening, Day 28 of the first cycle, then approximately every eight weeks till the end of the study for phase 1; in phase 2, imaging was scheduled at screening, and every eight weeks during the first 40 weeks, followed by every 12 weeks for the rest of the study period. RECIST 1.1 was used by the independent review committee or investigators for assessment of tumor response. After the original assessment, a repeated assessment was required around four weeks later to confirm a complete or partial response.
The primary endpoints of phase 1 were to investigate the MTD, dose-limiting toxicities, and the incidence and severity of TEAEs. Each TEAE was graded according to the Common Terminology Criteria for Adverse Events (CTCAE, version 5.0) and coded by Medical Dictionary for Regulatory Activities (MedDRA, version 21.0). The secondary endpoints included calculating PK parameters, assessing the ORR and DCR at the recommended dose by investigators as per RECIST 1.1. The exploratory endpoint was PFS.
If grade 2 or higher toxicity related to the study drug occurs in Groups 1 and 2 (as determined by the investigator), dose escalation will proceed using a 3+3 design starting from that dose level. If no DLT is observed at the 800 mg/d dose level after dose escalation, a meeting of investigators will be convened to decide whether to proceed with further dose escalation based on the available PK data, safety, and tolerability information.
5. Definition of DLT and MTD
The following events related to the study drug (including those that are definitely related, highly likely to be related, and possibly related):
(1) Grade 4 hematologic toxicity or grade 3 neutropenia accompanied by a fever of 38.5℃ or higher, or grade 3 thrombocytopenia accompanied by severe bleeding.
(2) Patients who discontinued the medication for more than 7 days due to unresolved toxicity reactions or who discontinued the medication more than twice due to toxicity […]
(3) In the context of supportive treatment, diarrhea of grade 2 lasting more than 7 days, or grade 3 diarrhea lasting more than 3 days.

[1] = Phase 1 Study, patient 5 with Grade 3 QTc prolongation
[2] = Phase 1 Study, patient 9 with Grade 3 QTc prolongation

COc1cc2c(Nc3ccc(Br)cc3F)ncnc2cc1OCCCCN(C)C.Cl.Cl [HA121-28, N-(4-bromo-2-fluorophenyl)-7-(4-(dimethylamino)butoxy)-6-methoxy quinazolin-4-amine dihydrochloride]
0.6%: AESI leading to permanent discontinuation (phase 1)
99.4%: patients with at least one TEAE (phase 1)
4: Grade of cardiac TEAE: Ventricular arrhythmia (Phase 1 Study, patient 7 with Grade 3 QTc prolongation)
0 No. (%): Serious TEAE: Headache (Phase 1, 800 mg (N=3)) | Serious TEAE: Hemoptysis (Phase 1, 800 mg (N=3)) | Serious TEAE: Hydronephrosis (Phase 1, 800 mg (N=3)) | Serious TEAE: Hypertension (Phase 1, 800 mg (N=3)) | Serious TEAE: Hypoalbuminemia (Phase 1, 800 mg (N=3)) | Serious TEAE: Intestinal obstruction (Phase 1, 800 mg (N=3)) | Serious TEAE: Intra-abdominal fluid collection (Phase 1, 800 mg (N=3)) | Serious TEAE: Intracranial tumor hemorrhage (Phase 1, 800 mg (N=3)) | Serious TEAE: Liver injury (Phase 1, 800 mg (N=3)) | Serious TEAE: Lung adenocarcinoma (Phase 1, 800 mg (N=3)) | Serious TEAE: Malignant neoplasm progression (Phase 1, 800 mg (N=3)) | Serious TEAE: Multiple organ dysfunction syndrome (Phase 1, 800 mg (N=3)) | Serious TEAE: Nausea (Phase 1, 800 mg (N=3)) | Serious TEAE: Nephrolithiasis (Phase 1, 800 mg (N=3)) | Serious TEAE: Platelet counts decreased (Phase 1, 800 mg (N=3)) | Serious TEAE: Pleural effusion (Phase 1, 800 mg (N=3)) | Serious TEAE: Pneumonia (Phase 1, 800 mg (N=3)) | Serious TEAE: Pneumonitis (Phase 1, 800 mg (N=3)) | Serious TEAE: Prolonged QT interval (Phase 1, 800 mg (N=3)) | Serious TEAE: Pulmonary embolism (Phase 1, 800 mg (N=3)) | Serious TEAE: Pyrexia (Phase 1, 800 mg (N=3)) | Serious TEAE: Rash (Phase 1, 800 mg (N=3)) | Serious TEAE: Rectal hemorrhage (Phase 1, 800 mg (N=3)) | Serious TEAE: Respiratory failure (Phase 1, 800 mg (N=3)) | Serious TEAE: Seizure (Phase 1, 800 mg (N=3)) | Serious TEAE: Septic shock (Phase 1, 800 mg (N=3)) | Serious TEAE: Sudden cardiac arrest (Phase 1, 800 mg (N=3)) | Serious TEAE: Sudden death (Phase 1, 800 mg (N=3)) | Serious TEAE: Upper respiratory tract infection (Phase 1, 800 mg (N=3)) | Serious TEAE: Ventricular tachycardia (Phase 1, 800 mg (N=3)) | Serious TEAE: Vomiting (Phase 1, 800 mg (N=3)) | Serious TRAE: ALT increased (Phase 1, 800 mg (N=3)) | Serious TRAE: AST increased (Phase 1, 800 mg (N=3)) | Serious TRAE: Abdominal Pain (Phase 1, 800 mg (N=3)) | Serious TRAE: Abdominal distension (Phase 1, 800 mg (N=3)) | Serious TRAE: Acute cholecystitis (Phase 1, 800 mg (N=3)) | Serious TRAE: Acute pancreatitis (Phase 1, 800 mg (N=3)) | Serious TRAE: Anal abscess (Phase 1, 800 mg (N=3)) | Serious TRAE: Aortic intramural hematoma (Phase 1, 800 mg (N=3)) | Serious TRAE: Arrhythmia (Phase 1, 800 mg (N=3)) | Serious TRAE: Blood bilirubin increased (Phase 1, 800 mg (N=3)) | Serious TRAE: Blood creatinine increased (Phase 1, 800 mg (N=3)) | Serious TRAE: COVID-19 (Phase 1, 800 mg (N=3)) | Serious TRAE: Cardiac tamponade (Phase 1, 800 mg (N=3)) | Serious TRAE: Coronary artery atherosclerosis (Phase 1, 800 mg (N=3)) | Serious TRAE: Death (Phase 1, 800 mg (N=3)) | Serious TRAE: Diarrhea (Phase 1, 800 mg (N=3)) | Serious TRAE: Drug eruption (Phase 1, 800 mg (N=3)) | Serious TRAE: Dyspnea (Phase 1, 800 mg (N=3)) | Serious TRAE: Embolism (Phase 1, 800 mg (N=3)) | Serious TRAE: Erythema multiforme (Phase 1, 800 mg (N=3)) | Serious TRAE: Headache (Phase 1, 800 mg (N=3)) | Serious TRAE: Hemoptysis (Phase 1, 800 mg (N=3)) | Serious TRAE: Hydronephrosis (Phase 1, 800 mg (N=3)) | Serious TRAE: Hypertension (Phase 1, 800 mg (N=3)) | Serious TRAE: Hypoalbuminemia (Phase 1, 800 mg (N=3)) | Serious TRAE: Intestinal obstruction (Phase 1, 800 mg (N=3)) | Serious TRAE: Intra-abdominal fluid collection (Phase 1, 800 mg (N=3)) | Serious TRAE: Intracranial tumor hemorrhage (Phase 1, 800 mg (N=3)) | Serious TRAE: Liver injury (Phase 1, 800 mg (N=3)) | Serious TRAE: Lung adenocarcinoma (Phase 1, 800 mg (N=3)) | Serious TRAE: Malignant neoplasm progression (Phase 1, 800 mg (N=3)) | Serious TRAE: Multiple organ dysfunction syndrome (Phase 1, 800 mg (N=3)) | Serious TRAE: Nausea (Phase 1, 800 mg (N=3)) | Serious TRAE: Nephrolithiasis (Phase 1, 800 mg (N=3)) | Serious TRAE: Platelet counts decreased (Phase 1, 800 mg (N=3)) | Serious TRAE: Pleural effusion (Phase 1, 800 mg (N=3)) | Serious TRAE: Pneumonia (Phase 1, 800 mg (N=3)) | Serious TRAE: Pneumonitis (Phase 1, 800 mg (N=3)) | Serious TRAE: Prolonged QT interval (Phase 1, 800 mg (N=3)) | Serious TRAE: Pulmonary embolism (Phase 1, 800 mg (N=3)) | Serious TRAE: Pyrexia (Phase 1, 800 mg (N=3)) | Serious TRAE: Rash (Phase 1, 800 mg (N=3)) | Serious TRAE: Rectal hemorrhage (Phase 1, 800 mg (N=3)) | Serious TRAE: Respiratory failure (Phase 1, 800 mg (N=3)) | Serious TRAE: Seizure (Phase 1, 800 mg (N=3)) | Serious TRAE: Septic shock (Phase 1, 800 mg (N=3)) | Serious TRAE: Sudden cardiac arrest (Phase 1, 800 mg (N=3)) | Serious TRAE: Sudden death (Phase 1, 800 mg (N=3)) | Serious TRAE: Upper respiratory tract infection (Phase 1, 800 mg (N=3)) | Serious TRAE: Ventricular tachycardia (Phase 1, 800 mg (N=3)) | Serious TRAE: Vomiting (Phase 1, 800 mg (N=3))
78.8%: TEAE diarrhea (phase 1, all grades)
600 mg: maximum tolerated dose (MTD) (once daily, phase 1 dose escalation)
57.5%: TEAE rash (phase 1, all grades)
1: Grade of cardiac TEAE: Bradycardia (Phase 1 Study, patient 2 with Grade 3 QTc prolongation) | Grade of cardiac TEAE: nodal tachycardia (Phase 1 Study, patient 3 with Grade 3 QTc prolongation) | Grade of cardiac TEAE: T wave anomaly (Phase 1 Study, patient 4 with Grade 3 QTc prolongation) | Grade of cardiac TEAE: Complete right bundle branch block [1] | Grade of cardiac TEAE: Incomplete right bundle branch block [1] | Grade of cardiac TEAE: sinus bradycardia [1] | Grade of cardiac TEAE: T wave anomaly (Phase 1 Study, patient 6 with Grade 3 QTc prolongation) | Grade of cardiac TEAE: ST-T wave changes (Phase 1 Study, patient 8 with Grade 3 QTc prolongation) | Grade of cardiac TEAE: Atrial premature beats [2] | Grade of cardiac TEAE: ST-T wave changes [2] | Grade of cardiac TEAE: T wave anomaly [2]
1 (33.3) No. (%): Serious TEAE: Weight loss (Phase 1, 800 mg (N=3)) | Serious TRAE: Any (Phase 1, 800 mg (N=3)) | Serious TRAE: Weight loss (Phase 1, 800 mg (N=3))
2: Grade of cardiac TEAE: Cardiopalmus (Phase 1 Study, patient 1 with Grade 3 QTc prolongation) | Grade of cardiac TEAE: Abnormal Q wave of III and aVF leads [2]
40.0%: patients with grade ≥3 TRAEs (phase 1)
98.1%: patients with at least one TRAE (phase 1)
48.8%: patients with grade ≥ 3 TEAEs (phase 1)
8.1%: grade ≥ 3 TEAE diarrhea (phase 1)
5.6%: grade ≥ 3 TEAE rash (phase 1)
14.4%: patients with treatment-related SAEs (phase 1)
450 mg: recommended phase 2 dose (RP2D) (q.d., 21-day on/7-day off)
15.0%: grade ≥ 3 TEAE prolonged QT interval (AESI) (phase 1)
2.5%: treatment-related SAE rash (phase 1)
10.6%: AESI leading to dose interruption (phase 1)
50.0%: TEAE prolonged QT interval (phase 1, all grades)
